These results are taken from patent US10927375B1, “Compositions and methods to reduce beta-agonist-mediated tachyphylaxis” (University of South Florida, priority 2018, dated 2021).

“Also recorded” adds a separate entry of the source.

Data set [1] concerns let-7f miRNA expression in HASM cells. Briefly: let-7f miRNA expression in cultured HASM cells by quantitative RT-PCR. Type of data set: cell-based, human. The following applies: for change in let-7f miRNA expression after treatment with the agent: 18 h at 37° C., asthmatic and nonasthmatic HASM cells, ISO 30 μM, forskolin 10 mM, dibutyryl-cAMP 100 mM as printed.
For another data set, the system named is ADRB2 mRNA. Briefly: ADRB2 mRNA in D9 HASM cells by RT-PCR. The note with it: 18 h ISO.
Data set [2] relates to β2AR. The note with it: incubating cells with dibutyryl-cAMP and forskolin (ref. 37); cited from earlier work.
Data set [3] deals with β2AR. The note with it: stably transfected HEK 293 cells greatly overexpressing β2ARs (ref. 40); cited from earlier work.
The target in data set [4] is β2AR (Homo sapiens, UniProt P07550). Briefly: β2AR protein expression / agonist-promoted down-regulation in HASM cells (Western blot, radioligand binding). (A western blot detects proteins with antibodies after separation by electrophoresis.)
Experimental: (§1) The immortalized HASM cell line denoted D9 hTERT was developed as described (22), and was grown in the same manner. […] In some experiments, pretreatment with 10 μM N-(2-[p-bromocinnamylamino]ethyl)-5-isoquinoline-sulfonamide (H89) occurred for 1 h prior to the aforementioned treatments.
HASM cells in 6-well plates were transfected using Lipofectamine 2000 (Thermo Fisher Scientific, Waltham, Mass., USA) as described in detail elsewhere (22, 23). Cells were in a final volume of 1.0 ml and the indicated constructs along with 10 ml of Lipofectamine 2000 were added to initiate the transfection. The constructs and final concentrations were: cAMP receptor element-binding protein [CREB (in pcDNA3, 4 μg/ml)], siCREB (40 nM of siGenome SmartPool; Dharmacon, Lafayette, Colo., USA), and to inhibit let-7f, a competitive inhibitor (Dharmacon) that binds to let-7f (24, 25) at a final concentration of 40 nM (24, 25). The cells were studied 48 h after transfection. […] Secondary antibody for chemoluminescence (Thermo Fisher Scientific) was at a titer of 1:10,000. ChemiDoc (Bio-Rad, Hercules, Calif., USA) was used to detect bands, which were quantitated using ImageJ (National Institutes of Health, Bethesda, Md., USA).
Radioligand binding. Confluent cells in 10 cm dishes were washed 3 times with cold PBS followed by disruption with a cell scraper in buffer consisting of 5 mM Tris and 2 mM EDTA at 4° C. (pH 7.4). Crude membranes were collected by centrifugation at 30,000 g for 15 min at 4° C., and resuspended in assay buffer consisting of 75 mM Tris, 12 mM MgCl2, and 5 mM EDTA at 25° C. (pH 7.4). […] After incubation for 1.5 h at 25° C., bound radioligands were separated from free radioligands by rapid dilution and vacuum filtration with buffer containing 15 ml of 5 mM Tris and 2 mM EDTA at 25° C. (pH 7.4) over Whatman GF/C filters (GE Healthcare Bio-Sciences, Piscataway, N.J., USA) using a Brandel cell harvester (Brandel, Gaithersberg, Md., USA). Specific binding was divided by the added cell membrane protein and β2AR expression stated as femtomoles per milligram.

Experimental for ADRB2 mRNA: as §1
RT-PCR was performed using a LightCycler 96 system (Roche, Basel, Switzerland) and TaqMan polymerase (Applied Biosystems, Foster City, Calif., USA) as previously described (26, 27). The RT reactions utilized Oligo d(T)16 for ADRB2 and glyceraldehyde-3 phosphate dehydrogenase (control), and the primers included with the TaqMan MicroRNA assay (Applied Biosystems) for the reaction with let-7f and U6 snRNA (control). […] Quantitation of transcripts was made by the 22DCt method (28, 29).

`O=S(=O)(NCCNCC=Cc1ccc(Br)cc1)c1cccc2cnccc12` [H89]: the “effect of H89 on ISO-promoted increase in let-7f” value in data set [1] (10 μM H89 pretreatment 1 h, then ISO 18 h, asthmatic and non-asthmatic HASM cells) is given as “blocked; also recorded: inhibited”. In data set [1] (10 μM H89 pretreatment 1 h, then forskolin 18 h, asthmatic and non-asthmatic HASM cells), the “effect of H89 on forskolin-promoted increase in let-7f” value was “blocked; also recorded: inhibited”. The “effect of H89 on dibutyryl-cAMP-promoted increase in let-7f” value in data set [1] (10 μM H89 pretreatment, then dibutyryl-cAMP 18 h, HASM cells) is recorded as “blocked”.
For `CC(C)NCC(O)c1ccc(O)c(O)c1` (centres unmarked) [ISO, isoproterenol], the “change in let-7f miRNA expression after treatment with the agent” value in data set [1] was “increased”. Further, in data set [1] (18 h exposure to ISO (30 μM), both asthmatic and non-asthmatic HASM cells), the “increase in let-7f miRNA expression” value was roughly 3 fold. For the same molecule, in the data set on ADRB2 mRNA, the “change in ADRB2 mRNA due to ISO exposure” value is given as “not altered; also recorded: not found to be changed”.
In the case of `CCCC(=O)Nc1ncnc2c1ncn2[C@@H]1O[C@@H]2COP(=O)(O)O[C@H]2[C@H]1OC(=O)CCC` [dibutyryl-cAMP], the “change in let-7f miRNA expression after treatment with the agent” value in data set [1] is “increased”. Also, the “β2AR down-regulation relative to β-agonists” value in the data set with β2AR [2] is on record as “nearly the same extent”. In addition, in the data set on β2AR [3], the “degree of β2AR down-regulation compared with that of ISO” value is “relatively small degree”.

B1: let-7f inhibitor: competitive inhibitor (Dharmacon) that binds to let-7f; Cat. No. IH-30048-07, SEQ ID NO: 14 (nucleic acid)
chain: UCAGAGUGAGGUAGUAGAUUGUAUAGUUGUGGGGUAGUGAUUUUACCCUGUUCAGGAGAUAACUAUACAAUCUAUUGCCUUCCCUGA
modifications: commercial inhibitor, chemistry not given here
With B1, the “attenuation of agonist-promoted β2AR down-regulation” value with β2AR [4] (let-7f or CREB silenced, chronic agonist) is “about 50%”. The “effect on ISO-promoted β2AR down-regulation” value in the data set with β2AR [4] (transfection 40 nM 48 h, then ISO 18 h) is on record as “attenuates; also recorded: markedly attenuated”.
